From patent publication US20050187150A1, “Structure-based design and synthesis of FGF inhibitors and FGF modulator compounds” (New York University, priority 2001, published 2005)

Key:
FGFR1 = assay: FGF receptor autophosphorylation in BaF3 cells over-expressing FGFR (anti-FGFR1 immunoprecipitation, phosphotyrosine immunoblot); type: cell-based; conditions: five minutes stimulation with FGF1 50 ng/ml plus heparin 10 μg/ml or sulfonated cyclodextrin 5 or 25 μM
Protocol: To verify that the effect of sulfonated β-cyclodextrin observed in FIG. 15A is actually due to activation of the FGF receptor, experiments were conducted that examined the capacity of heparin and β-cyclodextrin to stimulate kinase activity of FGF receptor in living cells. See, Mohammadi et al., Science 1997, 276:955-960 for a detailed description of such experiments.
Briefly, BaF3 cells over-expressing FGFR were stimulated for five minutes with FGF1 ligand (50 ng/ml), heparin (10 μg/ml) and/or sulfonated […] 5 or 25 μM). The cells were then lysed. Their proteins were immunoprecipitated with antibodies to FGFR1, separated by SDS-polyacrylamide gel electrophoresis (PAGE), immunoblotted with antibodies to phosphotyrosine, and detected by autoradiography. […] See, the left-hand and right-hand lanes, respectively, in FIG. 15B.

ERK-1 and ERK-2 = assay: ERK-1/ERK-2 phosphorylation in BaF3 cells over-expressing FGFR1 (immunoblot); type: cell-based; conditions: co-incubation with FGF1 50 ng/ml; heparin 10 μg/ml or sulfonated β-cyclodextrin 5 and 25 μM
[1] = system: BaF3 cells that stably expressed wild-type FGFR1; assay: Proliferation of BaF3 cells stably expressing FGFR1 in the presence of FGF2; type: cell-based
Source text: This example describes experiments that investigated the ability of SOS to modulate FGF ligand-dependent activation of the FGF receptor in vivo. In particular, an assay is described here that uses a BaF3 cell line which overexpresses FGFR1. This cell line has been previously described and is therefore known in the art (see, e.g., Huang et al., J. Biol. Chem. 1995, 270:5065-5072).
(§1) BaF3 cells are a lymphoid cell line, which are dependent on interleukin-3 (IL-3) for growth. […] Accordingly, the growth rate of such transfected cells is useful as a measurement of FGF receptor activity in vivo. Because BaF3 cells express only low amounts of HSPG, soluble heparin must also be present to elicit the FGF-dependent mitogenic response observed in the transfected cells.
For the experiments discussed here, BaF3 cells that stably expressed wild-type FGFR1 (SEQ ID NO:1) were cultured according to standard methods that have been previously described (see, Huang et al., supra). 1×10^4 cells were seeded in triplicate wells and grown in the presence of heparin (3 μM) or, alternatively, in the presence of various concentrations (0.1, 0.5, 1, 5 and 10 μM, respectively) of SOS. The numbers of viable cells in each well were counted daily in duplicate.
Paradoxically, however, FGFR dimers promoted by suramin are signaling incompetent. That is to say, the FGF receptor is not activated in these dimers. […]

FGF2-FGFR1 complexes [2] = molecular target: T1, FGF2-FGFR1 complexes (Homo sapiens, UniProt P09038+P11362); assay: Size exclusion chromatography of purified 1:1 FGF2:FGFR1 complexes mixed with test compound (dimerization); type: binding; conditions: for dimerization of FGF:FGFR complex (peaks in size exclusion chromatogram): compound added at 1:1:1 molar ratio FGF2:FGFR1:compound; for dimerization of FGF:FGFR complex (dimer peak D in size exclusion chromatogram): compound added at molar ratio 1:1:0.25 and 1:1:0.5 FGF2:FGFR1:compound, Superdex 200, 25 mM HEPES-NaOH pH 7.5, 150 mM NaCl
T1 construct: made in house
Source text: A construct encoding an extracellular ligand binding portion of the FGFR1 polypeptide set forth in FIG. 1A (SEQ ID NO:1) was expressed in E. coli and refolded […] using established protocols, as previously described by Plotnikov et al. (Cell 2000, 101:413-424). In particular, the soluble FGFR1 polypeptide expressed by this construct, which is referred to here as D23, comprises amino acid residues 142 to 365 of SEQ ID NO:1, which correspond to the immunoglobulin (Ig)-like domains 2 and 3 (D2 and D3, respectively), which are known to confer ligand binding and specificity for the FGFR receptor. However, the D23 polypeptide is missing the Ig-like domain 1 (D1), the acid box and the linker polypeptide sequence between D3 and the transmembrane helix. The D23 polypeptide is therefore similar to a naturally occurring splice variant of FGFR1 that retains full ligand binding capacity (Johnson et al., Mol. Cell. Biol. 1990, 10:4728-4736).
When expressed in E. coli cells, the D23 polypeptide was found entirely in inclusion bodies. The polypeptide was solubilized using standard denaturing reagents and refolded in vitro. Following purification by ion exchange chromatography, the D23 polypeptide was complexed with the FGF2 ligand polypeptide whose amino acid sequence is set forth in FIG. 2A (SEQ ID NO:3) and purified by size exclusion chromatography.
To quantitate dimerization, the purified 1:1 FGF2:FGFR1 complexes were mixed at various molar ratios with SOS and analyzed by size exclusion chromatography according on SUPERDEX 200® (Amersham Pharmacia Biotech.) size exclusion column in 25 mM HEPES-NaOH buffer (pH 7.5) containing 150 mM sodium chloride.
In these experiments, two milligram aliquots of the purified FGF2-FGFR1 complex described, supra, in Example 1 were mixed with suramin and analyzed on a size exclusion column equilibrated with 25 mM HEPES-NaOH buffer (pH 7.5) containing 150 mM NaCl.

[3] = system: BaF3 cells that stably express wild-type FGFR1; assay: Proliferation of BaF3 cells stably expressing FGFR1 in the presence of FGF1; type: cell-based; conditions: FGF1 50 ng/ml; sulfonated β-cyclodextrin 1, 5, 10 and 25 μM
Source text: This examples describes experiments that investigate the ability of sulfonated β-cyclodextrin to function as an effective heparin agonists. In particular, the cell-based assay described in Example 2, supra, is used here to investigate the ability of sulfonated β-cyclodextrin to modulate FGF ligand-dependent activation of the FGF receptor in vivo.
as §1, with “The assay uses a BaF3 cell line which overexpresses FGFR1. This cell line has been previously described and is known in the art (see, e.g., Huang et al., J. Biol. Chem. 1995, 270:5065-5072). BaF3 cells” for “BaF3 cells”, “in vivo. Ordinarily, because BaF3 cells” for “in vivo. Because BaF3 cells”
For the experiments described here, BaF3 cells that stably express wild-type FGFR1 ([…]) were cultured according to standard methods that have been previously described (see, Huang et al., supra). […] The numbers of viable cells in each well were counted daily in duplicate. […]

FGF2-FGFR1 complexes [4] = molecular target: T1, FGF2-FGFR1 complexes; assay: X-ray crystallography of the dimeric FGF2-FGFR1-SOS ternary complex
Protocol: This example describes x-ray crystallography experiments that better characterize the molecular mechanisms by which SOS may interact with and/or stabilize dimers of FGF-FGFR complexes. In particular, this example describes the crystalization of FGF2-FGFR1 complexes with SOS and the solution of that crystal structure by analyzing x-ray diffraction data.
Crystals of dimeric FGF2-FGFR1-SOS complexes were grown by vapor diffusion at 20° C. using the hanging drop method. 2 μL of protein solution (10 mg/mL in 25 mM HEPES-NaOH (pH 7.5) and 150 mM NaCl) was mixed with an equal volume of crystallization buffer (12-16% Polyethylene glycol 5000, 0.2 M ammonium sulfate and 15% glycerol in 0.1 M HEPES-NaOH (pH 7.5)). The protein solution contained a 1:1:1 stoichiometric ratio of FGF2, and soluble FGFR1 construct described, supra, in Example 1, and SOS.
The crystal belongs to the orthorhombic space group P21 21 21 and has unit cell dimensions of a=64.2 Å, b=122.4 Å and c=219.5 Å. The crystal contains four FGF2-FGFR1-SOS complexes in the asymmetric unit with a solvent content of about 56%.
Diffraction data were collected from a flash-frozen crystal on a CCD detector at beamline X4A at the National Synchrotron Light Source, Brookhaven National Laboratory. The data were processed using DENZO and SCALEPACK (Otwinowski & Minor, Methods Enzymol. 1997, 276:307-326). […]

T1 sequence (P11362 142-365): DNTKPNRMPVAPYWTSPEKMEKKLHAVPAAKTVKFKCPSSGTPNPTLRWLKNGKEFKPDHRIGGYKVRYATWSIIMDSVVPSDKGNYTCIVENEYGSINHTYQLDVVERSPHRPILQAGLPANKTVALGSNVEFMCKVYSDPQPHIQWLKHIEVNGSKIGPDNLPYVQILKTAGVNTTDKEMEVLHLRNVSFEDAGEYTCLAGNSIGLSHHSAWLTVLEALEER
T1 sequence (P09038 134-288): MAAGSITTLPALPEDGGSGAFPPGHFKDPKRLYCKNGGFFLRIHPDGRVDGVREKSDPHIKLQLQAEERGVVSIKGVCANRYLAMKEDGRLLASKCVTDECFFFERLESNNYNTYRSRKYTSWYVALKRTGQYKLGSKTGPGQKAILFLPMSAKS

heparin was tested, and the “autophosphorylation of the FGF receptor” value (FGFR1) was “stimulated autophosphorylation of the FGF receptor” and the “autophosphorylation of ERK-1 and ERK-2” value (ERK-1 and ERK-2) was “induces autophosphorylation of ERK-1 and ERK-2”.
With `Cc1ccc(C(=O)Nc2ccc(S(=O)(=O)O)c3cc(S(=O)(=O)O)cc(S(=O)(=O)O)c23)cc1NC(=O)c1cccc(NC(=O)Nc2cccc(C(=O)Nc3cc(C(=O)Nc4ccc(S(=O)(=O)O)c5cc(S(=O)(=O)O)cc(S(=O)(=O)O)c45)ccc3C)c2)c1` [suramin] the “heparin-like or SOS-like activity (FGF ligand-dependent activation of FGF receptor, BaF3 cell growth)” value ([1]; BaF3 cells grown with suramin instead of heparin or SOS, contacted with FGF ligand) was “no heparin-like or SOS-like activity was observed”, the “dimerization of FGF:FGFR complex (peaks in size exclusion chromatogram)” value (FGF2-FGFR1 complexes [2]) was “only a peak corresponding to the FGF:FGFR dimers is observed” and the “dimerization of FGF:FGFR complex (dimer peak D in size exclusion chromatogram)” value (FGF2-FGFR1 complexes [2]) was “a third peak corresponding to dimers of the FGF:FGFR complex is observed”.
With sulfonated β-cyclodextrin the “proliferation of BaF3 cells over expressing FGFR1 (daily viable cell counts)” value [3] was “supports the FGF ligand in inducing proliferation of the BaF3 cells over expressing FGFR1 in a dose-dependent manner”, the “autophosphorylation of the FGF receptor” value (FGFR1) was “results in autophosphorylation of the FGF receptor” and the “autophosphorylation of ERK-1 and ERK-2” value (ERK-1 and ERK-2) was “induces autophosphorylation of ERK-1 and ERK-2”.
In the case of `O=S(=O)(O)OC[C@H]1O[C@@](COS(=O)(=O)O)(O[C@H]2O[C@H](COS(=O)(=O)O)[C@@H](OS(=O)(=O)O)[C@H](OS(=O)(=O)O)[C@H]2OS(=O)(=O)O)[C@@H](OS(=O)(=O)O)[C@@H]1OS(=O)(=O)O` [SOS, sucrose octasulfate], the “proliferation of BaF3 cells over expressing FGFR1 (daily viable cell counts)” value ([1]; FGF2 50 ng/ml, SOS 0.1, 0.5, 1, 5 and 10 μM) was “supports FGF2 in inducing proliferation of the BaF3 cells over expressing FGFR1 in a dose-dependent manner”, the “hydrogen bonds of the well ordered SOS molecule with FGF2 and both FGFR1 molecules” value (FGF2-FGFR1 complexes [4]; crystal structure at 2.6 Å resolution) was 13 and the “effect on FGF-FGFR binding affinity inferred from the crystal structure” value (FGF2-FGFR1 complexes [4]; interaction mimics heparin) was “increases FGF-FGFR binding affinity”. For the same molecule, the “dimerization of FGF:FGFR complex (peaks in size exclusion chromatogram)” value (FGF2-FGFR1 complexes [2]) was “only a peak corresponding to FGF:FGFR dimers is observed” and the “dimerization of FGF:FGFR complex (dimer peak D in size exclusion chromatogram)” value (FGF2-FGFR1 complexes [2]) was “a third peak corresponding to dimers of the FGF:FGFR complex is observed”.
